Data as given in US11535630B2, “Apelin receptor (APJ) agonists and uses thereof” (Research Triangle Institute, priority 2015, dated 2022).
Where a name gives a salt, the structure may show the parent alone.

Target: T1, apelin receptor (APJ) (Homo sapiens, UniProt P35414)
T1 sequence (P35414 1-380): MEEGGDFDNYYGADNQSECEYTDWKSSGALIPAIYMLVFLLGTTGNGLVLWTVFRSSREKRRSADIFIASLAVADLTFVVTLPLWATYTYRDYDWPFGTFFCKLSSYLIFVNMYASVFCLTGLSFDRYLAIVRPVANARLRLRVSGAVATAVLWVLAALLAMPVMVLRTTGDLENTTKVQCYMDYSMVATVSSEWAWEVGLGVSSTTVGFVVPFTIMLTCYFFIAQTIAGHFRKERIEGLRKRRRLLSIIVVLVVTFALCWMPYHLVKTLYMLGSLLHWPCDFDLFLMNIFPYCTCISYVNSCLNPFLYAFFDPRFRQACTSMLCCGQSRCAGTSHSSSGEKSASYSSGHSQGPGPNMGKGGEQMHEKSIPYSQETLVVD
Assay: In vitro apelin agonist activity (methods of Giddings et al., Apelin-13 as positive control)
Assay type: cell-based
Details: in vitro apelin agonist activity, methods of Giddings et al., Apelin-13 as positive control; read-out: EC50 (nM) Ave
From the text: Characterization of the Apelin Agonist Activity of the Compounds
1:39-47, the contents of which are hereby incorporated by reference in its entirety. Using the methods described in Giddings et al. and Apelin-13 as a positive control.

Row | EC50 [nM] | Compound
1 | 9210 | COc1cccc(OC)c1-c1cc(C(=O)N[C@@H](/C=C/c2ccccn2)CC(=O)NC2CCC2)nn1C1CCCC1 [compound 435, (3R,4E)-N-cyclobutyl-3-{[1-cyclopentyl-5-(2,6-dimethoxyphenyl)-1H-pyrazol-3-yl]formamido}-5-(pyridin-2-yl)pent-4-enamide]
2 | 104 | CC1(F)CCCN(CC[C@@H](CC(=O)O)NC(=O)c2cc(-c3ccccc3C(F)(F)F)n(C3CCCC3)n2)C1 (stereo partly drawn) [compound 613, (3S)-3-({1-cyclopentyl-5-[2-(trifluoromethyl)phenyl]-1H-pyrazol-3-yl}formamido)-5-(3-fluoro-3-methylpiperidin-1-yl)pentanoic acid trifluoroacetate]
3 | > 10000 | O=C(C[C@H](CCN1CCCCC1)NC(=O)c1cc(-c2ccc(F)cc2OCC(F)(F)F)n(C2CCCC2)n1)NC1CCC1 [compound 366, (3S)-N-cyclobutyl-3-({1-cyclopentyl-5[4-fluoro-2-(2,2,2-trifluoroethoxy)phenyl]-1H-pyrazol-3-yl]formamido)-5-(piperidin-1-yl)pentanamide]
4 | 310 | O=C(O)C[C@H](CCN1CC2CCC(C1)C2(F)F)NC(=O)c1cc(-c2ccccc2C(F)(F)F)n(C2CCCC2)n1 [compound 606, (3S)-3-({1-cyclopentyl-5-[2-(trifluoromethyl)phenyl]-1H-pyrazol-3-yl}formamido)-5-{8,8-difluoro-3-azabicyclo[3.2.1]octan-3-yl}pentanoic acid]
5 | > 10000 | COc1cccc(OC)c1-c1cc(C(=O)N[C@H](CCO)CCN2CCCCC2)nn1C1CCCC1 [compound 358]
6 | > 10000 | COc1cccc(OC)c1-c1cc(C(=O)N[C@H](CCNC2CCC2)CCN2CCCCC2)nn1C1CCCC1 [compound 398, N-[(3R)-1-(cyclobutylamino)-5-(piperidin-1-yl)pentan-3-yl]-1-cyclopentyl-5-(2,6-dimethoxyphenyl)-1H-pyrazole-3-carboxamide]
7 | 27 | O=C(N[C@@H](CCN1CCCC(F)(F)C1)Cc1nnn[nH]1)c1cc(-c2ncccc2C(F)(F)F)n(C2CCCC2)n1 [compound 641]
8 | 2970 | CS(=O)(=O)c1ccccc1-c1cc(C(=O)N[C@@H](CCN2CCCCC2)CC(=O)NC2CCC2)nn1C1CCCC1 [compound 367, (3S)-N-cyclobutyl-3-{[1-cyclopentyl-5-(2-methanesulfonylphenyl)-1H-pyrazol-3-yl]formamido}-5-(piperidin-1-yl)pentanamide]
9 | 140 | CC(C)c1ccccc1-c1cc(C(=O)N[C@@H](CCN2CCCCC2)CC(=O)NC2CCC2)nn1C1CCCC1 [compound 397, (3S)-N-cyclobutyl-3-({1-cyclopentyl-5-[2-(propan-2-yl)phenyl]-1H-pyrazol-3-yl}formamido)-5-(piperidin-1-yl)pentanamide]
10 | 30 | O=C(N[C@@H](CCN1CCCC(F)(F)C1)Cc1nnc[nH]1)c1cc(-c2ccccc2Cl)n(C2CCCC2)n1 [compound 450, 5-(2-chlorophenyl)-1-cyclopentyl-N-[(2S)-4-(3,3-difluoropiperidin-1-yl)-1-(4H-1,2,4-triazol-3-yl)butan-2-yl]-1H-pyrazole-3-carboxamide]
11 | 203 | COc1cccc(OC)c1-c1cc(C(=O)N[C@H](CC(=O)Nc2nccs2)Cc2ccccc2)nn1C1CCCC1 [compound 402, (3S)-3-{[1-cyclopentyl-5-(2,6-dimethoxyphenyl)-1H-pyrazol-3-yl]formamido}-4-phenyl-N-(1,3-thiazol-2-yl)butanamide]
12 | 302 | O=C(O)C[C@H](CCN1CCC[C@H](F)C1)NC(=O)c1cc(-c2ccccc2C(F)(F)F)n(C2CCCC2)n1 [compound 583, (3S)-3-({1-cyclopentyl-5-[2-(trifluoromethyl)phenyl]-1H-pyrazol-3-yl}formamido)-5-[(3S)-3-fluoropiperidin-1-yl]pentanoic acid]
13 | 46 | O=C(O)C[C@H](CCN1CC2C(C1)C2(F)F)NC(=O)c1cc(-c2ccccc2C(F)(F)F)n(C2CCCC2)n1 (stereo partly drawn) [compound 603, (3S)-3-({1-cyclopentyl-5-[2-(trifluoromethyl)phenyl]-1H-pyrazol-3-yl}formamido)-5-{6,6-difluoro-3-azabicyclo[3.1.0]hexan-3-yl}pentanoic acid]

Second part, the compound before the results:

Row | Compound | EC50 [nM]
14 | CC(C)C[C@@H](CC(=O)NCc1ccccc1)NC(=O)c1cc(-c2ccccc2C(F)(F)F)n(C2CCCC2)n1 [compound 441, (3S)-N-benzyl-3-({1-cyclopentyl-5-[2-(trifluoromethyl)phenyl]-1H-pyrazol-3-yl}formamido)-5-methylhexanamide] | > 10000
15 | COc1cccc(OC)c1-c1cc(C(=O)N[C@@H](CCN2CC3(CCC3)C2)CC(=O)NC2CCC2)nn1C1CCCC1 [compound 349] | 197
16 | COc1cccc(OC)c1-c1cc(C(=O)N[C@@H](CCN2CCCCC2)Cc2nnnn2C)nn1C1CCCC1 [compound 445, 1-cyclopentyl-5-(2,6-dimethoxyphenyl)-N-[(2S)-1-(1-methyl-1H-1,2,3,4-tetrazol-5-yl)-4-(piperidin-1-yl)butan-2-yl)-1H-pyrazole-3-carboxamide] | 2830
17 | CN(C(=O)C[C@H](CCN1CCCC[C@@H]1C(F)(F)F)NC(=O)c1cc(-c2ccccc2C(F)(F)F)n(C2CCCC2)n1)c1nccs1 [compound 489, (3S)-3-({1-cyclopentyl-5-[2-(trifluoromethyl)phenyl]-1H-pyrazol-3-yl}formamido)-N-methyl-N-(1,3-thiazol-2-yl)-5-[(2R)-2-(trifluoromethyl)piperidin-1-yl]pentanamide] | 161
18 | O=C(N[C@@H](CCN1C(=O)CCCC1=O)Cc1nnn[nH]1)c1cc(-c2ccccc2C(F)(F)F)n(C2CCCC2)n1 [compound 655, 1-cyclopentyl-N-[(2S)-4-(2,6-dioxopiperidin-1-yl)-1-(1H-1,2,3,4-tetrazol-5-yl)butan-2-yl]-5-[2-(trifluoromethyl)phenyl]-1H-pyrazole-3-carboxamide] | 66
19 | COc1cccc(OC)c1-c1cc(C(=O)N[C@@H](CC2CCCC2)C(=O)O)nn1C1CCCC1 [compound 393, (2S)-3-cyclopentyl-2-{[1-cyclopentyl-5-(2,6-dimethoxyphenyl)-1H-pyrazol-3-yl]formamido}propanoic acid] | 424
20 | COc1cccc(OC)c1-c1cc(C(=O)N[C@@H](CCC2CCCCC2)CC(=O)O)nn1CC1CCCCC1 [compound 648] | > 10000
21 | C[C@]1(F)CCCN(CC[C@@H](CC(=O)O)NC(=O)c2cc(-c3ccccc3C(F)(F)F)n(C3CCCC3)n2)C1 [compound 614, (3S)-3-({1-cyclopentyl-5-[2-(trifluoromethyl)phenyl]-1H-pyrazol-3-yl}formamido)-5-[(3S)-3-fluoro-3-methylpiperidin-1-yl]pentanoic acid] | 41
22 | O=C(C[C@H](CCN1CCCCCC1)NC(=O)c1cc(-c2ccccc2C(F)(F)F)n(C2CCCC2)n1)NC1CCC1 [compound 505, (3S)-5-(azepan-1-yl)-N-cyclobutyl-3-({1-cyclopentyl-5-[2(trifluoromethyl)phenyl]-1H-pyrazol-3-yl}formamido)pentanamide] | 34
23 | NNC(=O)C[C@H](CCc1ccc(F)cc1)NC(=O)c1cc(-c2ccccc2C(F)(F)F)n(C2CCCC2)n1 [compound 464] | 1040
24 | O=C(C[C@H](CCNC(=O)C1COC1)NC(=O)c1cc(-c2ccccc2C(F)(F)F)n(C2CCCC2)n1)NC1CCC1 [compound 539, (3S)-N-cyclobutyl-3-({1-cyclopentyl-5-[2-(trifluoromethyl)phenyl]-1H-pyrazol-3-yl}formamido)-5-(oxetan-3-ylformamido)pentanamide] | 176
